Laboratory results from ChEMBL document CHEMBL3853293, “Part-1: Design, synthesis and biological evaluation of novel bromo-pyrimidine analogs as tyrosine kinase inhibitors” (Eur J Med Chem, 2016).

Tests used:
[1] = Cytotoxicity against human HCT116 cells assessed as reduction in cell viability after 96 hrs by MTT assay; conditions: HCT-116, 96 h
[2] = Cytotoxicity against human A549 cells assessed as reduction in cell viability after 96 hrs by MTT assay; conditions: A549, 96 h
[3] = Cytotoxicity against human U937 cells assessed as reduction in cell viability after 96 hrs by MTT assay; conditions: U-937, 96 h
[4] = Cytotoxicity against human K562 cells assessed as reduction in cell viability after 96 hrs by MTT assay; conditions: K562, 96 h
[5] = Cytotoxicity against human L02 cells assessed as reduction in cell viability after 96 hrs by MTT assay; format: toxicity, cell-based
Bcr/Abl fusion protein = Bcr/Abl fusion protein (Homo sapiens, UniProt P00519); test: Inhibition of BRC/ABL1 (unknown origin) after 40 mins by ADP-Glo assay; format: protein assay
Chain of Bcr/Abl fusion protein (P00519 whole entry, the tested form may be a part): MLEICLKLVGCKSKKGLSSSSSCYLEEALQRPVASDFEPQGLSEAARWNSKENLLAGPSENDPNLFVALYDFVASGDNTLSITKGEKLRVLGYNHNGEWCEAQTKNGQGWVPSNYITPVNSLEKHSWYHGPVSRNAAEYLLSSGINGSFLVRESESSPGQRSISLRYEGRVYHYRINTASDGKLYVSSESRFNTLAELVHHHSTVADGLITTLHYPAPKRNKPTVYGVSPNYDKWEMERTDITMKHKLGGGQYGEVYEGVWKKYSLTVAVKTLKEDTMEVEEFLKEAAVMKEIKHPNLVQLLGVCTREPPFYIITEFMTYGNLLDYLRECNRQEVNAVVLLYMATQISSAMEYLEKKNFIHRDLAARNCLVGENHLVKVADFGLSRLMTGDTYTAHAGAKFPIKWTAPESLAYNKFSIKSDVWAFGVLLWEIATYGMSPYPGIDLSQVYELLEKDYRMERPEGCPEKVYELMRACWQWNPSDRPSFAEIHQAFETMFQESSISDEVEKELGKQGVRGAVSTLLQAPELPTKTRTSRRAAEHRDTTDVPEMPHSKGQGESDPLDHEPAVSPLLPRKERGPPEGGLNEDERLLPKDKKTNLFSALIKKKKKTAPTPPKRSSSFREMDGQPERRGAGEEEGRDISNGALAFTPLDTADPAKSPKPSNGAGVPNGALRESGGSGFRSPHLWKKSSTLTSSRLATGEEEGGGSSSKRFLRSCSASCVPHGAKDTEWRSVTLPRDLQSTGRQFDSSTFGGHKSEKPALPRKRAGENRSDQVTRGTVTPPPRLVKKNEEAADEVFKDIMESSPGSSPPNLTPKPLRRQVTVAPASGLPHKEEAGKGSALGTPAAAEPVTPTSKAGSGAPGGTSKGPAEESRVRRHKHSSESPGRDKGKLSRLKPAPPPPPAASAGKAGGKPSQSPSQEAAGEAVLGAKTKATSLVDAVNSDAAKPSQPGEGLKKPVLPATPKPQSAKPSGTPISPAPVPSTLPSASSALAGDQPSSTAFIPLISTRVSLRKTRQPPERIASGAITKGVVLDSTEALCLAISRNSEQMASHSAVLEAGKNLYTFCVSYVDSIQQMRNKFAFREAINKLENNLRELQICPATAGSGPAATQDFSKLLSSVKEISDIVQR
Chain of Bcr/Abl fusion protein (P11274 whole entry, further chain, the tested form may be a part): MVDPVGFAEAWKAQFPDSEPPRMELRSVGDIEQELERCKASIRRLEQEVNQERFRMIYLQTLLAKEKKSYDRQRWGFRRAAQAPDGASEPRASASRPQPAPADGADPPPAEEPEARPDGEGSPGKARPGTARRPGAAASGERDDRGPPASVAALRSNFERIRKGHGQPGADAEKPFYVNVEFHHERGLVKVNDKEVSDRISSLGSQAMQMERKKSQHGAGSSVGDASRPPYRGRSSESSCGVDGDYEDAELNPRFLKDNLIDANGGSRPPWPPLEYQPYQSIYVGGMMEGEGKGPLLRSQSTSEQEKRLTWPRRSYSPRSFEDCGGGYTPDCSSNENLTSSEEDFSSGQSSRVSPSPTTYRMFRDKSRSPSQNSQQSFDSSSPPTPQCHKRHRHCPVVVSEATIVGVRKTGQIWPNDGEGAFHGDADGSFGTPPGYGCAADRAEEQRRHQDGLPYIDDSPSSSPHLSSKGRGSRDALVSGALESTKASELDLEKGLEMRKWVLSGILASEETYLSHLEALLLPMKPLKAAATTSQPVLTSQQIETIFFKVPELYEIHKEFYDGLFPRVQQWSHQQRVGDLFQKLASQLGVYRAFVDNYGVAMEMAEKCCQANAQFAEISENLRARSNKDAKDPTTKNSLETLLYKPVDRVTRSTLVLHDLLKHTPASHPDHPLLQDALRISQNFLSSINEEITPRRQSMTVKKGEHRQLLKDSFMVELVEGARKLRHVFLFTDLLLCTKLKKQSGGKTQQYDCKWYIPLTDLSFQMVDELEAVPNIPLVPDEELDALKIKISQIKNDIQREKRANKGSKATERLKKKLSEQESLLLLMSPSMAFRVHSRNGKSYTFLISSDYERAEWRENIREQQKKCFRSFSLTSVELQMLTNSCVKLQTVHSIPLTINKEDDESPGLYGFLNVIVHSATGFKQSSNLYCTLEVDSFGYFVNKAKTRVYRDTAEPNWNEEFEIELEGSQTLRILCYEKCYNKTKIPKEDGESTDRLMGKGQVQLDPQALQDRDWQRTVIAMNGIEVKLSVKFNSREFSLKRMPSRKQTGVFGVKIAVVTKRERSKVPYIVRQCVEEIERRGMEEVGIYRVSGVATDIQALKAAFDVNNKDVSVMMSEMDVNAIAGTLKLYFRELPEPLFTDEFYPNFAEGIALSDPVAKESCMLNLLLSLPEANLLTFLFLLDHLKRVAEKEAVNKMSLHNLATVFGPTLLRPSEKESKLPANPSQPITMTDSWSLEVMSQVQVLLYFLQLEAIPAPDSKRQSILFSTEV

IC50 (Bcr/Abl fusion protein) | Structure (SMILES) | IC50 [1] | IC50 [2] | IC50 [3] | IC50 [4] | IC50 at 96 h [5]
1.15 µM | CC(C)(C)c1ccc(S(=O)(=O)N2CCN(c3nc(N4CCOCC4)ncc3Br)CC2)cc1 | 8.67 µM | 12.4 µM | 12.8 µM | 9.09 µg/mL | > 40 µM
> 500 µM | Cc1noc(C)c1S(=O)(=O)N1CCN(c2nc(N3CCOCC3)ncc2Br)CC1 | 8.34 µM | 10.5 µM | 11.7 µM | 9.45 µg/mL | > 40 µM
> 500 µM | O=S(=O)(C1CC1)N1CCN(c2nc(Cl)ncc2Br)CC1 |  |  |  |  | 
> 500 µM | O=C(c1ccc(Cl)cc1[N+](=O)[O-])N1CCN(c2nc(N3CCOCC3)ncc2Br)CC1 | 6.43 µM | 9.76 µM | 13.1 µM | 13.2 µM | > 40 µM
> 500 µM | N#Cc1ccc(S(=O)(=O)N2CCN(c3nc(N4CCOCC4)ncc3Br)CC2)cc1 | 8.33 µM | 12.4 µM | 12.2 µM | 10.5 µg/mL | > 40 µM
0.385 µM | COC(=O)NC(C(=O)N1CCN(c2nc(Cl)ncc2Br)CC1)C(C)C (stereo not drawn) |  |  |  |  | 
2.28 µM | O=C(c1cc(Cl)ccc1Cl)N1CCN(c2nc(Cl)ncc2Br)CC1 | 8.23 µM | 10.5 µM | 11.3 µM | 9.22 µg/mL | > 40 µM
0.22 µM | O=S(=O)(C1CC1)N1CCN(c2nc(N3CCOCC3)ncc2Br)CC1 | 8.11 µM | 12 µM | 12.1 µM | 9.12 µg/mL | > 40 µM
1.69 µM | Cc1ccc(S(=O)(=O)N2CCN(c3nc(N4CCOCC4)ncc3Br)CC2)c(C)c1 | 8.56 µM | 11.2 µM | 12.8 µM | 9.09 µg/mL | > 40 µM
> 500 µM | O=S(=O)(c1cc(Cl)sc1Cl)N1CCN(c2nc(N3CCOCC3)ncc2Br)CC1 | 9.23 µM | 9.56 µM | 13.6 µM | 10.1 µg/mL | > 40 µM
0.44 µM | O=S(=O)(c1ccc2ccccc2c1)N1CCN(c2nc(N3CCOCC3)ncc2Br)CC1 | 9.56 µM | 8.23 µg/mL | 15.1 µM | 10.3 µg/mL | > 40 µM
0.019 µM | O=C(c1ccc(C(F)(F)F)cc1)N1CCN(c2nc(Cl)ncc2Br)CC1 | 4.92 µg/mL | 8.23 µg/mL | 7.12 µg/mL | 10.3 µg/mL | > 40 µM

Second part, the molecule before the results:

Structure (SMILES) | IC50 (Bcr/Abl fusion protein) | IC50 [1] | IC50 [2] | IC50 [3] | IC50 [4] | IC50 at 96 h [5]
O=C(c1ccc(F)cc1)N1CCN(c2nc(N3CCOCC3)ncc2Br)CC1 | 0.024 µM | 4.56 µg/mL | 8.67 µM | 9.89 µg/mL | 9.45 µg/mL | > 40 µM
O=[N+]([O-])c1cc(C(F)(F)F)ccc1S(=O)(=O)N1CCN(c2nc(Cl)ncc2Br)CC1 | 0.0226 µM |  |  |  |  | 
Cc1noc(C)c1S(=O)(=O)N1CCN(c2nc(Cl)ncc2Br)CC1 | 0.56 µM |  |  |  |  | 
Cc1ccc(S(=O)(=O)N2CCN(c3nc(N4CCOCC4)ncc3Br)CC2)cc1 | 1.98 µM | 7.65 µM | 9.23 µM | 10.5 µM | 10.3 µg/mL | > 40 µM
O=S(=O)(c1cc(C(F)(F)F)cc(C(F)(F)F)c1)N1CCN(c2nc(Cl)ncc2Br)CC1 | 2.25 µM |  |  |  |  | 
Cc1ccc(S(=O)(=O)N2CCN(c3nc(Cl)ncc3Br)CC2)cc1 | 58 µM |  |  |  |  | 
O=C(c1ccc(F)cc1)N1CCN(c2nc(Cl)ncc2Br)CC1 | 0.019 µM | 8.11 µM | 7.34 µg/mL | 9.12 µg/mL | 8.82 µg/mL | > 40 µM
O=S(=O)(c1ccc(C(F)(F)F)cc1)N1CCN(c2nc(N3CCOCC3)ncc2Br)CC1 | 0.019 µM | 4.32 µg/mL | 6.25 µg/mL | 7.54 µg/mL | 9.95 µg/mL | > 40 µM
O=S(=O)(c1ccc(F)cc1)N1CCN(c2nc(N3CCOCC3)ncc2Br)CC1 | 4.52 µM | 8.11 µM | 9.34 µM | 11.1 µM | 9.32 µg/mL | > 40 µM
O=C(c1cc(I)ccc1Cl)N1CCN(c2nc(Cl)ncc2Br)CC1 | 16.2 µM | 6.51 µM | 12.2 µM | 12.2 µM | 8.67 µg/mL | > 40 µM
O=C(c1cc(Cl)c(Cl)c(Cl)n1)N1CCN(c2nc(Cl)ncc2Br)CC1 | 1.44 µM |  |  |  |  | 
O=[N+]([O-])c1cc(C(F)(F)F)ccc1S(=O)(=O)N1CCN(c2nc(N3CCOCC3)ncc2Br)CC1 | 0.0206 µM | 4.02 µg/mL | 6.65 µg/mL | 7.14 µg/mL | 9.65 µg/mL | > 40 µM
O=S(=O)(c1ccc(-c2ccccc2)cc1)N1CCN(c2nc(N3CCOCC3)ncc2Br)CC1 | 0.32 µM | 9.12 µM | 10.1 µM | 11.2 µM | 9.32 µg/mL | > 40 µM
CS(=O)(=O)N1CCN(c2nc(Cl)ncc2Br)CC1 | 0.255 µM |  |  |  |  | 
O=C(c1ccc(Cl)cc1[N+](=O)[O-])N1CCN(c2nc(Cl)ncc2Br)CC1 | 2.58 µM | 7.34 µM | 12.1 µM | 14.3 µM | 10.2 µg/mL | > 40 µM
O=S(=O)(c1ccc(F)cc1)N1CCN(c2nc(Cl)ncc2Br)CC1 | 122 µM |  |  |  |  | 
O=C(c1c(F)cccc1F)N1CCN(c2nc(N3CCOCC3)ncc2Br)CC1 | 0.89 µM | 5.56 µM | 7.17 µg/mL | 13.1 µM | 11.2 µg/mL | > 40 µM
O=C(c1ccc(C(F)(F)F)cc1)N1CCN(c2nc(N3CCOCC3)ncc2Br)CC1 | 0.024 µM | 4.45 µg/mL | 6.44 µg/mL | 9.88 µg/mL | 9.17 µg/mL | > 40 µM
O=S(=O)(c1ccc(-c2ccccc2)cc1)N1CCN(c2nc(Cl)ncc2Br)CC1 | 0.64 µM |  |  |  |  | 
CCCS(=O)(=O)N1CCN(c2nc(Cl)ncc2Br)CC1 | > 500 µM |  |  |  |  | 
Cc1nc(Nc2ncc(C(=O)Nc3c(C)cccc3Cl)s2)cc(N2CCN(CCO)CC2)n1 [DASATINIB] |  | 5.23 µM | 8.37 µM | 10.2 µM | 12 µM | > 40 µM
O=C(c1c(F)cccc1F)N1CCN(c2nc(Cl)ncc2Br)CC1 | 2.65 µM | 4.97 µg/mL | 12.6 µM | 12.4 µM | 10.2 µg/mL | > 40 µM
CS(=O)(=O)N1CCN(c2nc(N3CCOCC3)ncc2Br)CC1 |  | 8.11 µM | 9.71 µM | 11.6 µM | 12 µM | > 40 µM
